Data set [1] concerns the target T1, Adenosylhomocysteinase (Homo sapiens, UniProt P23526). Briefly: Inhibition of recombinant human AHCY using SAH as substrate assessed as formation of homocysteine after 10 mins.
For data set [2], the target named is T1, Adenosylhomocysteinase. Briefly: Inhibition of AHCY in human SH-SY5Y cells assessed as formation of homocysteine after 48 hrs by HPLC analysis. Type of data set: cell-based.
Data set [3] in a line: Clearance in rat. Format: ADME, organism-based. Particulars: in vivo.
Data set [4] can be described thus: Clearance in dog. Format: ADME, organism-based, Canis lupus familiaris. Particulars: in vivo.
Data set [5] is described as follows: Half life in rat. The note with it: in vivo. Format: ADME, organism-based.
Data set [6] is described as follows: Half life in dog. Format: ADME, organism-based, Canis lupus familiaris. Particulars: in vivo.
Data set [7] is described as follows: Oral bioavailability in rat. Format: ADME, organism-based. The note with it: in vivo.
Data set [8] in a line: Oral bioavailability in dog. The note with it: in vivo. Format: ADME, organism-based, Canis lupus familiaris.
A short description of data set [9]: Plasma protein binding in human. Type of data set: ADME, cell-free.
Data set [10] in a line: Plasma protein binding in rat. Format: ADME, cell-free.
Data set [11] can be described thus: Solubility of the compound at pH 7. The note with it: buffer. Format: physicochemical.

Each structure is given as a SMILES string. pIC50: −log10 of the molar value.

The text below walks through data of ChEMBL document CHEMBL3286270, “Adenosine analogue inhibitors of S-adenosylhomocysteine hydrolase” (Bioorg Med Chem Lett, 2014).

As usually defined, the pIC50 is the negative decadic logarithm of the IC50, by convention in mol/L. Broadly, the clearance is a measure of how efficiently the substance is removed, as volume per time. Read a high clearance as a high capacity for elimination. What is called half-life is how long it takes for the measured level to halve. A lower half-life goes with rapid decline. What is called bioavailability is dose-corrected exposure relative to a reference, in per cent. Low values mean little systemic uptake, high ones much systemic uptake.

T1 sequence (P23526 whole entry): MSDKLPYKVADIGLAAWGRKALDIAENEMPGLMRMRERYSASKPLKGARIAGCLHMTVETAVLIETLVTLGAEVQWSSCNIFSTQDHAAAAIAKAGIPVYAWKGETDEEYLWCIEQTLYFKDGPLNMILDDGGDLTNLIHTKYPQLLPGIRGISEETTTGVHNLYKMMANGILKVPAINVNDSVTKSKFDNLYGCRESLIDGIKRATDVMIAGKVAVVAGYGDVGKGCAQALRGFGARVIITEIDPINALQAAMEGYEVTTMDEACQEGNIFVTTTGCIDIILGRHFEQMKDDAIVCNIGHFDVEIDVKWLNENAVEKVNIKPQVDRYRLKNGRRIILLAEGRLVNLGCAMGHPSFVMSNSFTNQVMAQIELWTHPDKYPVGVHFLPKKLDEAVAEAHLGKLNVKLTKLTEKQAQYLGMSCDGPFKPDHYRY

On to `Nc1ncnc2c1ncn2[C@@H]1C=C[C@@H](O)[C@H]1O`, for which the results for the pIC50 at Adenosylhomocysteinase [1] and at Adenosylhomocysteinase [2] were 5.38 and 6.06, respectively.
For `Nc1ncnc2c1ncn2[C@@H]1CC[C@@H](O)[C@H]1O`, in that order: 7.26 and 8.82.
In the same order, the values of `Nc1ncc(F)c2c1ncn2[C@@H]1C[C@@H](O)[C@@H](O)[C@H]1O` are below 5.00 and 6.06.
In the same order, the values of `Nc1nccn2c([C@@H]3CC[C@@H](O)[C@H]3O)cnc12` are 6.60 and 8.82.
As to `Nc1ncnc2c1nc(F)n2[C@@H]1CC[C@@H](O)[C@H]1O`, the pIC50 on Adenosylhomocysteinase [1] and at Adenosylhomocysteinase [2] was below 5.00 in each case.
As to `Nc1ncnc2c1nc(Cl)n2[C@@H]1CC[C@@H](O)[C@H]1O`, the results for the negative logarithm of the IC50 (pIC50) at Adenosylhomocysteinase [1] and at Adenosylhomocysteinase [2] were below 5.00 and 5.68, respectively.
For `Nc1ncnc2c1nc(Br)n2[C@@H]1CC[C@@H](O)[C@H]1O`, in that order: below 5.00 and below 5.00.
Regarding `Nc1nc(F)nc2c1ncn2[C@@H]1CC[C@@H](O)[C@H]1O`, the pIC50 on Adenosylhomocysteinase [1] was 5.67; on Adenosylhomocysteinase [2], 7.01.
`Nc1nc(F)cc2c1ncn2[C@@H]1CC[C@@H](O)[C@H]1O`: the pIC50 on Adenosylhomocysteinase [1] is 5.32.
For `Nc1ncc(F)c2c1ncn2[C@@H]1CC[C@@H](O)[C@H]1O`, the figures for the pIC50 on Adenosylhomocysteinase [1] and at Adenosylhomocysteinase [2] were 7.40 and 8.89, respectively. Besides, the clearance worked out at 21 mL/min/kg in data set [3] and 9.6 mL/min/kg in data set [4]. Besides, the values for the half-life in [5] and in data set [6] were 0.9 h and 3.6 h, respectively. Moreover, the bioavailability is 86% in data set [7] and above 99% in data set [8]. Further, the PPB in [9] and in [10] was below 0.1% each time. The same molecule had a solubility in data set [11] above 200 uM/ml.
In the case of `Nc1ncc(Cl)c2c1ncn2[C@@H]1CC[C@@H](O)[C@H]1O`, the pIC50 at Adenosylhomocysteinase [1] is 7.80; on Adenosylhomocysteinase [2] it was 8.66.
Take `Cc1cnc(N)c2ncn([C@@H]3CC[C@@H](O)[C@H]3O)c12`: the negative logarithm of the IC50 (pIC50) at Adenosylhomocysteinase [1] is 6.63; on Adenosylhomocysteinase [2] it was 7.44.
In the same order, the values of `Nc1nc(F)c(F)c2c1ncn2[C@@H]1CC[C@@H](O)[C@H]1O` are 5.44 and 6.72.
For `Nc1ncc(F)c2c1ncn2[C@@H]1C[C@@H](F)[C@@H](O)[C@H]1O`, in that order: below 5.00 and 6.17.
For `Nc1ncc(F)c2c1ncn2[C@@H]1C[C@H](F)[C@@H](O)[C@H]1O`, in that order: 6.57 and 7.39.
As for `Nc1ncc(F)c2c1ncn2[C@@H]1C[C@H](O)[C@@H](O)[C@H]1O`, the pIC50 at Adenosylhomocysteinase [1] was 7.62; on Adenosylhomocysteinase [2], 8.03.
As to `C[C@H]1C[C@@H](n2cnc3c(N)ncc(F)c32)[C@H](O)[C@@H]1O`, the pIC50 at Adenosylhomocysteinase [1] was 5.91.
Same read-out and setting: the same measure for `Nc1ncc(F)c2c1ncn2[C@@H]1C=C[C@@H](O)[C@H]1O`: 5.01.
In the case of `Nc1ncc(F)c2c1ncn2[C@H]1[C@H](O)[C@H](O)[C@@H]2C[C@@H]21`, the pIC50 on Adenosylhomocysteinase [1] is below 5.00; on Adenosylhomocysteinase [2], 5.71.
As for `Nc1ncc(F)c2c1ncn2[C@@H]1C(F)=C[C@@H](O)[C@H]1O`, the pIC50 at Adenosylhomocysteinase [1] was 6.01.
Consider `Nc1ncnc2c1ncn2[C@@H]1C=C(CCl)[C@@H](O)[C@H]1O`, for which the pIC50 at Adenosylhomocysteinase [1] is 6.71; at Adenosylhomocysteinase [2], 6.03.
In the same order, the values of `Nc1ncc(F)c2c1ncn2[C@@H]1C(F)C[C@@H](O)[C@H]1O` (mixture of isomers) are 6.34 and 8.57.
In the same order, the values of `Nc1ncnc2c1ncn2[C@@H]1C=C(CO)[C@@H](O)[C@H]1O` [NEOPLANOCIN A] are 8.82 and 8.00.
